Results: article PMC6891570, “Yuccalechins A–C from the Yucca schidigera Roezl ex Ortgies Bark: Elucidation of the Relative and Absolute Configurations of Three New Spirobiflavonoids and Their Cholinesterase Inhibitory Activities” (Molecules, 2019)
Read-outs that look alike come from different tables or passages of the source.

Columns and labels:
[1] = target: T1, Electric eel AChE (Type-VI-S, EC 3.1.1.7) (Electrophorus electricus, UniProt O42275); assay: biochemical; format: biochemical; settings: for inhibition at 1000 µM: at 1000 µM final concentration, six replicates, read-out: Inhibition (% ± S.D.) AChE
T1 construct: purchased Sigma, St. Louis, MO, USA Type-VI-S (catalogue number not given)
T1 sequence (O42275 24-633): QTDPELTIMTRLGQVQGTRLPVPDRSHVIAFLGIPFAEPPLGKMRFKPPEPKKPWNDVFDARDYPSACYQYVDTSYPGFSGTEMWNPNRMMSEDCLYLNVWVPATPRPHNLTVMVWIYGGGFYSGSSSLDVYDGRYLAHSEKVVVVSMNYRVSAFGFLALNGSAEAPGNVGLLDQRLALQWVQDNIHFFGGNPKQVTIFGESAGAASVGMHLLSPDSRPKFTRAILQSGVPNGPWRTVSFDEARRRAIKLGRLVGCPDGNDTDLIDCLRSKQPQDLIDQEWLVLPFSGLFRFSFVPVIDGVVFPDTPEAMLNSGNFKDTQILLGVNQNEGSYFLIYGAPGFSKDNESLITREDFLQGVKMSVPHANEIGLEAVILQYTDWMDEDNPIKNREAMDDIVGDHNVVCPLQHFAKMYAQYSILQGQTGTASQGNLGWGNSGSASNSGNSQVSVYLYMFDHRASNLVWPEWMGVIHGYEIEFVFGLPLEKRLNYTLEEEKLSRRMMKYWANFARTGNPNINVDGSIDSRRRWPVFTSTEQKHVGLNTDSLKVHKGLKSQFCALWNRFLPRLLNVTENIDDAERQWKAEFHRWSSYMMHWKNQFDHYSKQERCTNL
Method: (§1) The modified Ellman’s assay was used to measure the anti-acetylcholinesterase and anti-butyrylcholinesterase activities of 13, 26, and 29 [81, 82].
(§2) AChE and BChE inhibitory activities were measured by a slightly modified spectrophotometric method of Ellman et al.. Electric eel AChE (Type-VI-S, EC 3.1.1.7, Sigma, St. Louis, MO, USA) and horse serum BChE (EC 3.1.1.8, Sigma, St. Louis, MO, USA) were used as the enzyme sources, while acetylthiocholine iodide and butyrylthiocholine chloride (Sigma, St. Louis, MO, USA) were employed as the substrates of the reaction. 5,5′-Dithio-bis(2-nitrobenzoic) acid (DTNB, Sigma, St. Louis, MO, USA) was used to measure the anticholinesterase activity as the coloring agent. All reagents and conditions were exactly the same as described in our previous publication. Hydrolysis of acetylthiocholine iodide/butyrylthiocholine chloride was monitored by the formation of the yellow 5-thio-2-nitrobenzoate anion, as a result of the reaction of DTNB with thiocholines, catalyzed by enzymes at 412 nm utilizing a 96-well microplate reader (VersaMax Molecular Devices, USA). The measurements and calculations were evaluated by using Softmax PRO 4.3.2.LS software. The percent inhibitions of AChE/BChE were determined by comparing the reaction rates of the samples relative to a blank sample (ethanol in phosphate buffer pH = 8), using the formula (E − S)/E × 100, where E is the activity of enzyme without test sample, and S is the activity of the enzyme with the test sample. The experiments were conducted in six replicates. Galantamine (Sigma, St. Louis, MO, USA) was used as the reference.

[2] = target: T2, horse serum BChE (EC 3.1.1.8) (Equus caballus, UniProt P81908); assay: BChE inhibition, modified Ellman's spectrophotometric assay; format: biochemical; settings: for inhibition at 1000 µM: read-out: Inhibition (% ± S.D.) BChE
T2 construct: horse serum BChE (EC 3.1.1.8, Sigma, St. Louis, MO, USA) were used as the enzyme sources; purchased Sigma, St. Louis, MO, USA; host or cells: horse serum
T2 sequence (P81908 whole entry): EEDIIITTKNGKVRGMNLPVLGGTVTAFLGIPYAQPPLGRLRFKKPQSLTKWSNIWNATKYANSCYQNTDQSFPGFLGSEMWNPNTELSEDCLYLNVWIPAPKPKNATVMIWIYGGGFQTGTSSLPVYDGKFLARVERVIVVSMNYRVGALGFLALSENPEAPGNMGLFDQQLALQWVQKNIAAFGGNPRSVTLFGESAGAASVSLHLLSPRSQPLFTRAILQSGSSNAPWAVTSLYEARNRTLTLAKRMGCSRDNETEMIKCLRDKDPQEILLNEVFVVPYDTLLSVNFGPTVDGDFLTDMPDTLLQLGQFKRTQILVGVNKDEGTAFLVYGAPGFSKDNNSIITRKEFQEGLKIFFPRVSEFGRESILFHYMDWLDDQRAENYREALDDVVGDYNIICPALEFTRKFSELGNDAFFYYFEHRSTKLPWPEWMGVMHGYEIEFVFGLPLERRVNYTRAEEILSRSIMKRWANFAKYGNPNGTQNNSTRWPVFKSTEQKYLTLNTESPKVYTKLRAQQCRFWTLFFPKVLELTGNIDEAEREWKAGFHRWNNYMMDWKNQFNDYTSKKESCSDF
Method: as §1, §2

[3] = tested on: AChE/BChE; settings: previous results; cited from earlier work
[4] = at 1000 µM final concentration, six replicates

Row | SMILES | activity against AChE (in words) [1] | inhibition at 1000 µM [1] [%] | activity against BChE (in words) [2] | inhibition at 1000 µM [2, 4] [%] | cholinesterase inhibitory activity (in words) [3] | IC50 [1] [µM] | inhibition at 1000 µM [2] [%]
1 | COc1c(O)cc(/C=C/c2cc(O)cc(O)c2)cc1O [Compound 13, trans-3,3′,5,5′-tetrahydroxy-4′-methoxystilbene] | almost inactive | 19.3 ± 3.03 | almost inactive | 25.2 ± 2.58 | – | – | –
2 | Oc1ccc(/C=C/c2cc(O)cc(O)c2)cc1 [Compound 21, Trans-resveratrol] | – | – | – | – | very weak activity | – | –
3 | O=C1Oc2cc(O)c3c(c2C12c1c(O)cc(O)cc1OC2c1ccc(O)cc1)OC(c1ccc(O)cc1)C(O)C3 [Compound 26, (2S,2′R,3R,3′S)-3′,4,5′,6-tetrahydroxy-2,2′-bis(4-hydroxyphenyl)-3′,4′-dihydro-2H,2′H,8′H-spiro[benzofuran-3,9′-furo.[2,3-h]chromen]-8′-one] | very low and selective activities | 80.5 ± 1.22 | – | 48.5 ± 2.29 | – | 294 | –
4 | O=C1Oc2cc(O)c3c(c2[C@]12c1c(O)cc(O)cc1O[C@H]2c1ccc(O)cc1)O[C@H](c1ccc(O)cc1)[C@@H](O)C3 [Compound 29, (2S,2′R,3S,3′S)-3′,4,5′,6-tetrahydroxy-2,2′-bis(4-hydroxyphenyl)-3′,4′-dihydro-2H,2′H,8′H-spiro[benzofuran-3,9′-furo[2,3-h]chromen]-8′-one] | very low and selective activities | 52.5 ± 2.6 | – | 33.4 ± 1.37 | – | 655 | –
5 | COc1ccc2c3c1O[C@H]1C[C@@H](O)C=C[C@@]31CCN(C)C2 [Reference, Galantamine HBr, reference compound] | – | – | – | – | – | – | 91.5 ± 1.63
6 | Oc1cc(O)cc(/C=C/c2ccc(O)c(O)c2)c1 [piceatannol, trans-3,3′,4′,5-tetrahydroxystilbene, reference compound] | – | – | – | – | much higher, selective against BChE, activity | – | –
